{"source": "ChEMBL document CHEMBL1129883", "about": "“Synthesis and cytotoxicity of 5-deazaflavins containing o- and p-quinone moieties” (Bioorg Med Chem Lett, 1997)", "key": {"L1210": {"test_system": "L1210", "assay": "In vitro cytotoxicity determined against murine leukemia L1210 cells by MTT assay", "type": "functional, cell-based", "details": "Mus musculus"}, "KB": {"test_system": "KB", "assay": "In vitro cytotoxicity determined against human epidermoid carcinoma KB cells by MTT assay", "type": "functional, cell-based"}}, "data": [{"smiles": "CCCCn1c2nc(=O)n(C)c(=O)c-2cc2c1C(=O)C(OC)=CC2=O", "values": [{"measurement": "IC50", "setting": "L1210", "result": 1.2, "unit": "µM"}, {"measurement": "IC50", "setting": "KB", "result": 0.9, "unit": "µM"}]}, {"smiles": "CCCCCCCCCCCCn1c2nc(=O)n(-c3ccccc3)c(=O)c-2cc2c1C(=O)C(=O)c1ccccc1-2", "values": [{"measurement": "IC50", "setting": "L1210", "result": 2.8, "unit": "µM"}, {"measurement": "IC50", "setting": "KB", "result": 17.9, "unit": "µM"}]}, {"smiles": "CCCCn1c2nc(=O)n(C)c(=O)c-2cc2c1C(=O)C(=O)c1ccccc1-2", "values": [{"measurement": "IC50", "setting": "L1210", "result": 0.4, "unit": "µM"}, {"measurement": "IC50", "setting": "KB", "result": 0.2, "unit": "µM"}]}, {"smiles": "CCCCCCCCn1c2nc(=O)n(C)c(=O)c-2cc2c1C(=O)C(OC)=CC2=O", "values": [{"measurement": "IC50", "setting": "L1210", "result": 0.4, "unit": "µM"}, {"measurement": "IC50", "setting": "KB", "result": 5.8, "unit": "µM"}]}, {"smiles": "CCCCCCCCn1c2nc(=O)n(C)c(=O)c-2cc2c1C(=O)C(=O)c1ccccc1-2", "values": [{"measurement": "IC50", "setting": "L1210", "result": 0.4, "unit": "µM"}, {"measurement": "IC50", "setting": "KB", "result": 1.7, "unit": "µM"}]}, {"smiles": "CCCCCCCCCCCCn1c2nc(=O)n(C)c(=O)c-2cc2c1C(=O)C(=O)c1ccccc1-2", "values": [{"measurement": "IC50", "setting": "L1210", "result": 0.3, "unit": "µM"}, {"measurement": "IC50", "setting": "KB", "result": 0.2, "unit": "µM"}]}, {"smiles": "CCCCCCCCn1c2nc(=O)[nH]c(=O)c-2cc2c1C(=O)C(=O)c1ccccc1-2", "values": [{"measurement": "IC50", "setting": "L1210", "result": 4.2, "unit": "µM"}, {"measurement": "IC50", "setting": "KB", "result": 3.2, "unit": "µM"}]}, {"smiles": "CCCCCCCCn1c2nc(=O)n(-c3ccccc3)c(=O)c-2cc2c1C(=O)C(OC)=CC2=O", "values": [{"measurement": "IC50", "setting": "L1210", "result": 1.8, "unit": "µM"}, {"measurement": "IC50", "setting": "KB", "result": 1, "unit": "µM"}]}, {"smiles": "CCCCCCCCCCCCn1c2nc(=O)n(C)c(=O)c-2cc2c1C(=O)C(OC)=CC2=O", "values": [{"measurement": "IC50", "setting": "L1210", "result": 0.1, "unit": "µM"}, {"measurement": "IC50", "setting": "KB", "result": 1.8, "unit": "µM"}]}, {"smiles": "CCCCCCCCn1c2nc(=O)[nH]c(=O)c-2cc2c1C(=O)C(OC)=CC2=O", "values": [{"measurement": "IC50", "setting": "L1210", "result": 4.4, "unit": "µM"}, {"measurement": "IC50", "setting": "KB", "result": 1.5, "unit": "µM"}]}, {"smiles": "CCCCCCCCCCCCn1c2nc(=O)[nH]c(=O)c-2cc2c1C(=O)C(=O)c1ccccc1-2", "values": [{"measurement": "IC50", "setting": "L1210", "result": 3, "unit": "µM"}, {"measurement": "IC50", "setting": "KB", "result": 6.9, "unit": "µM"}]}, {"smiles": "CCCCCCn1c2nc(=O)n(C)c(=O)c-2cc2c1C(=O)C(OC)=CC2=O", "values": [{"measurement": "IC50", "setting": "L1210", "result": 0.5, "unit": "µM"}, {"measurement": "IC50", "setting": "KB", "result": 0.6, "unit": "µM"}]}, {"smiles": "CCCCCCn1c2nc(=O)[nH]c(=O)c-2cc2c1C(=O)C(OC)=CC2=O", "values": [{"measurement": "IC50", "setting": "L1210", "result": 4.8, "unit": "µM"}, {"measurement": "IC50", "setting": "KB", "result": 4.5, "unit": "µM"}]}, {"smiles": "CCCCCCCCn1c2nc(=O)n(-c3ccccc3)c(=O)c-2cc2c1C(=O)C(=O)c1ccccc1-2", "values": [{"measurement": "IC50", "setting": "L1210", "result": 3.1, "unit": "µM"}, {"measurement": "IC50", "setting": "KB", "result": 22.9, "unit": "µM"}]}, {"smiles": "CCCn1c2nc(=O)n(C)c(=O)c-2cc2c1C(=O)C(=O)c1ccccc1-2", "values": [{"measurement": "IC50", "setting": "L1210", "result": 0.7, "unit": "µM"}, {"measurement": "IC50", "setting": "KB", "result": 1.2, "unit": "µM"}]}, {"smiles": "CCCCCCn1c2nc(=O)n(C)c(=O)c-2cc2c1C(=O)C(=O)c1ccccc1-2", "values": [{"measurement": "IC50", "setting": "L1210", "result": 0.1, "unit": "µM"}, {"measurement": "IC50", "setting": "KB", "result": 0.8, "unit": "µM"}]}, {"smiles": "CCCCn1c2nc(=O)n(-c3ccccc3)c(=O)c-2cc2c1C(=O)C(=O)c1ccccc1-2", "values": [{"measurement": "IC50", "setting": "L1210", "result": 4.9, "unit": "µM"}, {"measurement": "IC50", "setting": "KB", "result": 28.2, "unit": "µM"}]}, {"smiles": "CCn1c2nc(=O)n(C)c(=O)c-2cc2c3ccccc3cc(OC)c21", "values": [{"measurement": "IC50", "setting": "L1210", "result": "> 50", "unit": "µM"}, {"measurement": "IC50", "setting": "KB", "result": "> 50", "unit": "µM"}]}, {"smiles": "CCCCn1c2nc(=O)[nH]c(=O)c-2cc2c1C(=O)C(=O)c1ccccc1-2", "values": [{"measurement": "IC50", "setting": "L1210", "result": 2.1, "unit": "µM"}, {"measurement": "IC50", "setting": "KB", "result": 5.2, "unit": "µM"}]}, {"smiles": "CCCCCCn1c2nc(=O)n(-c3ccccc3)c(=O)c-2cc2c1C(=O)C(OC)=CC2=O", "values": [{"measurement": "IC50", "setting": "L1210", "result": 1.3, "unit": "µM"}, {"measurement": "IC50", "setting": "KB", "result": 0.4, "unit": "µM"}]}, {"smiles": "CCn1c2nc(=O)n(C)c(=O)c-2cc2c1C(=O)C(=O)c1ccccc1-2", "values": [{"measurement": "IC50", "setting": "L1210", "result": 0.1, "unit": "µM"}, {"measurement": "IC50", "setting": "KB", "result": 0.3, "unit": "µM"}]}, {"smiles": "CCCCCCCCCCCCn1c2nc(=O)n(-c3ccccc3)c(=O)c-2cc2c1C(=O)C(OC)=CC2=O", "values": [{"measurement": "IC50", "setting": "L1210", "result": 2.7, "unit": "µM"}, {"measurement": "IC50", "setting": "KB", "result": 0.3, "unit": "µM"}]}, {"smiles": "CCCCCCCCCCCCn1c2nc(=O)[nH]c(=O)c-2cc2c1C(=O)C(OC)=CC2=O", "values": [{"measurement": "IC50", "setting": "L1210", "result": 2.5, "unit": "µM"}, {"measurement": "IC50", "setting": "KB", "result": 12.7, "unit": "µM"}]}, {"smiles": "CCCCCCCCCCCCn1c2nc(=O)n(C)c(=O)c-2cc2ccccc21", "values": [{"measurement": "IC50", "setting": "L1210", "result": "> 50", "unit": "µM"}, {"measurement": "IC50", "setting": "KB", "result": "> 50", "unit": "µM"}]}]}
